From patent US11013235B2 (priority 2015, dated 2021)
Like-named read-outs stand apart in the source and are kept apart here.

Columns and labels:
Format in all cases: in vivo
[1] = tested on: Alternaria solani; experiment: Control of Alternaria solani disease in tomato (As-SI); details: 1 μM spraying every 24 hours for one week, water control 68
Description: (§1) In order to compare the effect of the compounds of formula I to V on the control of diseases in different plants, experiments were conducted in tobacco, tomato and Arabidopsis thaliana plants inoculated with Phytophthora parasitica, Rhizoctonia solani, Alternaria solani, Nocardia sp and Botrytis cinerea, respectively. The compounds were applied by spraying, at a concentration of 1 μM, every 24 hours for one week. The plant mortality rate was determined for the disease produced by Phytophthora parasitica, Rhizoctonia solani and Nocardia sp, while the percentage of leaves with symptoms was determined for the infection by Alternaria solani. In the case of plants affected by Botrytis cinerea, the lesion diameter was measured. […] Each treatment included fifty plants. As control, plants treated with water were studied. The plants of each treatment were previously inoculated with the indicated pathogens, according to different inoculation protocols (Frontiers in Plant Science 3: 268, 1-6, 2012), and later they were treated with the compounds.

[2] = tested on: Phytophthora parasitica; experiment: Control of Phytophthora parasitica disease in tobacco (Pp-Nt); details: 1 μM spraying every 24 hours for one week, water control 91
Description: as §1

[3] = tested on: Rhizoctonia solani; experiment: Control of Rhizoctonia solani disease in tobacco (Rs-Nt); details: 1 μM spraying every 24 hours for one week, water control 87
Description: as §1

[4] = tested on: Botrytis cinerea; experiment: Control of Botrytis cinerea disease in tomato (Bc-SI); details: 1 μM spraying every 24 hours for one week, water control 7.4
Description: as §1

[5] = tested on: Pratylenchus coffeae; experiment: Nematode control, nodules per plant: Pratylenchus coffeae; details: 1 μM foliar application every 5 days, evaluation 35 days after, control 42
Description: (§2) The solutions of the compounds were prepared in ethanol and diluted in water, up to a concentration of 1 μM for a foliar application. Applications were conducted every 5 days, spraying only the leafs with each compound. Ten plants were used for each treatment and the final evaluation was performed 35 days after, by quantifying the number of nodules per plant.

[6] = tested on: Meloidogyne incognita; experiment: Nematode control, nodules per plant: Meloidogyne incognita; details: 1 μM foliar application every 5 days, evaluation 35 days after, control 34
Description: as §2

[7] = tested on: Nocardia sp; experiment: Control of Nocardia sp disease in tobacco (N-Nt); details: 1 μM spraying every 24 hours for one week, water control 58
Description: as §1

[8] = tested on: Botrytis cinerea; experiment: Control of Botrytis cinerea disease in tobacco (Bc-Nt); details: 1 μM spraying every 24 hours for one week, water control 6.7
Description: as §1

[9] = tested on: Rhizoctonia solani; experiment: Control of Rhizoctonia solani disease in tomato (Rs-SI); details: 1 μM spraying every 24 hours for one week, water control 96
Description: as §1

[10] = tested on: Candidatus 'Liberibacter asiaticus'; details: spraying every 15 days, 12 months after treatment, Citrus sinensis with HLB
[11] = tested on: Radopholus similis; experiment: Nematode control, nodules per plant: Radopholus similis; details: 1 μM foliar application every 5 days, evaluation 35 days after, control 45
Description: as §2

[12] = tested on: Botrytis cinerea; experiment: Control of Botrytis cinerea disease in Arabidopsis (Bc-At); details: 1 μM spraying every 24 hours for one week, water control 8.7
Description: as §1

SMILES | As-SI: percentage of leaves with the disease symptoms [1] [%] | Pp-Nt: percentage of mortality [2] [%] | Rs-Nt: percentage of mortality [3] [%] | Bc-SI: mean of the diameter of the lesion [4] [mm] | Pc: number of nodules per plant [5] | Mi: number of nodules per plant [6] | N-Nt: percentage of mortality [7] [%] | Bc-Nt: mean of the diameter of the lesion [8] [mm] | Rs-SI: percentage of mortality [9] [%] | Titers of the bacterium ([10]; 0.001 μM) [copies per reaction] | Titers of the bacterium ([10]; 0.01 μM) [copies per reaction] | Titers of the bacterium ([10]; 1 μM) [copies per reaction] | Titers of the bacterium ([10]; 5 μM) [copies per reaction] | Titers of the bacterium ([10]; 10 μM) [copies per reaction] | Rs: number of nodules per plant [11] | Bc-At: mean of the diameter of the lesion [12] [mm]
O=C(c1ccc(OC2CCN(CC(O)CO)CC2)cc1)N1CCC(n2cccc2)C1 (centres unmarked) [IVK, 3-[4-(4-{[3-(1H-pyrrol-1-yl)pyrrolidin-1-yl]carbonyl}phenoxy)piperidin-1-yl]propane-1,2-diol] | 1 | 1 | 2 | 0.8 | 14 | 2 | 1 | 0.9 | 3 | 578 | 5 | 4 | 78 | 8542 | 14 | 0.5
O=C(c1ccc(OC2CCN(CC(O)CO)CC2)cc1)N1CCCC1 (centres unmarked) [IVI, 3-(4-{4-[(pyrrolidin-1-yl)carbonyl]phenoxy}piperidin-1-yl)propane-1,2-diol] | 7 | 3 | 0 | 0.8 | 0 | 0 | 0 | 0.3 | 1 | 456 | 4 | 2 | 56 | 2547 | 3 | 1.2
Cc1c2c(oc(=O)c1CC(=O)NCC(O)CO)C=CC1C(c3ccc4ccccc4c3)=COC21 (centres unmarked) [IIL, N-(2,3-dihydroxypropyl)-2-[13-methyl-5-(naphthalen-2-yl)-11-oxo-3,10-dioxatricyclo[7.4.0.0^{2,6}]trideca-1(9),4,7,12-tetraen-12-yl]acetamide] | 7 | 0 | 0 | 1.6 | 0 | 0 | 0 | 2.0 | 0 | 635 | 1 | 0 | 65 | 5478 | 0 | 1.1
O=C(CCc1cc2cc3c(C4CCCCC4)coc3cc2oc1=O)NCC(O)CO (centres unmarked) [IC, 3-{6-cyclohexyl-2-oxo-2H-furo[3,2-g]chromen-3-yl}-N-(2,3-dihydroxypropyl)propanamide] | 3 | 1 | 4 | 0.8 | 22 | 4 | 2 | 0.9 | 2 | 432 | 9 | 0 | 43 | 9632 | 13 | 0.5
O=C(Cc1cc2c(oc1=O)C=CC1C=COC21)NCC(O)CO (centres unmarked) [IIF, N-(2,3-dihydroxypropyl)-2-{11-oxo-3,10-dioxatricyclo[7.4.0.0^{2,6}]trideca-1(9),4,7,12-tetraen-12-yl}acetamide] | 5 | 0 | 0 | 1.6 | 0 | 0 | 0 | 2.0 | 1 | 657 | 9 | 0 | 67 | 6547 | 0 | 1.1
Cc1c(CCC(=O)NCC(O)CO)c(=O)oc2cc3occ(-c4ccc5ccccc5c4)c3cc12 (centres unmarked) [IL, N-(2,3-dihydroxypropyl)-3-[4-methyl-6-(naphthalen-2-yl)-2-oxo-2H-furo[3,2-g]chromen-3-yl]propanamide] | 7 | 0 | 0 | 1.2 | 0 | 0 | 0 | 0.9 | 0 | 578 | 0 | 0 | 78 | 3574 | 0 | 0.7
CN1c2cc(C(N)=O)ccc2OCC1CC(=O)NC(CO)CO (centres unmarked) [VJ, 3-{[(1,3-dihydroxypropan-2-yl)carbamoyl]methyl}-4-methyl-3,4-dihydro-2H-1,4-benzoxazine-6-carboxamide] | 8 | 0 | 0 | 0.8 | 14 | 0 | 1 | 0.3 | 2 | 456 | 0 | 0 | 56 | 1351 | 0 | 1.2
Cc1nc(N2CCN(C)CC2)ncc1C(=O)N1CC2CC(O)C(O)CC2C1 (centres unmarked) [IIIB, 2-{[4-methyl-2-(4-methylpiperazin-1-yl)pyrimidin-5-yl]carbonyl}-octahydro-1H-isoindole-5,6-diol] | 2 | 2 | 3 | 1.2 | 16 | 3 | 1 | 0.9 | 2 | 123 | 0 | 0 | 23 | 8546 | 2 | 0.7
